This is an account of results in PubChem BioAssay (NCI).

Several values for one entry are separate records, joined by “and”; a condition that tells them apart may be missing. Equal entries are not always repeated.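 All cell lines were grown in 96-well plates and treated with compound for 48 hours. At the GI50, growth is halved. TGI denotes the concentration required for complete inhibition of growth.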

Some test systems named below: SNB-75 CNS; SNB-19 CNS; SK-MEL-28 melanoma; UACC-62 melanoma; SK-MEL-2 melanoma; M14 melanoma; NCI-H460 lung; EKVX NSCLC; RXF 393 renal; HL-60(TB) leukemia.
Common to all, as to test: NCI-60 cell line screen, 48 h

On to `CSC1(CC(=O)N2CCCCC2)C(=O)Nc2ccccc21` (configuration not stated), for which the TGI in the assay with SNB-75 CNS, in the assay with SNB-19 CNS, in the assay on SK-MEL-28 melanoma, with UACC-62 melanoma, in the assay on SK-MEL-2 melanoma and with M14 melanoma was over 100 µM throughout. The TGI in the assay on NCI-H460 lung and in the assay with EKVX NSCLC was over 100 µM throughout.

Consider `O=c1ccnc(SCc2ccc(Cl)cc2)[nH]1`, for which the TGI with RXF 393 renal, with SNB-75 CNS, in the assay with SNB-19 CNS, in the assay with SK-MEL-28 melanoma, with UACC-62 melanoma and with SK-MEL-2 melanoma was over 100 µM each time. Further, the TGI in the assay with M14 melanoma, with NCI-H460 lung and in the assay on EKVX NSCLC was over 100 µM each time.

For `O=C(C=Nc1ccccc1C(=O)[O-])c1cccs1.O=C(C=Nc1ccccc1C(=O)[O-])c1cccs1.[Zn+2]`, the TGI in the assay with SNB-75 CNS was 35.3 µM; in the assay with SNB-19 CNS, over 100 µM; in the assay with SK-MEL-28 melanoma, over 100 µM; in the assay on UACC-62 melanoma it was 42 µM; with HL-60(TB) leukemia, over 100 µM; with SK-MEL-2 melanoma, 52.1 µM. The TGI with M14 melanoma and with NCI-H460 lung was over 100 µM each time.

Turning to `COc1ccc(C2CC(=O)c3c(O)c(OC)c(OC)c(OC)c3O2)cc1O` (configuration not stated), the GI50 in the assay with SNB-75 CNS is 0.0358 µM; in the assay with SNB-19 CNS, 0.0833 µM; with SK-MEL-28 melanoma it was 14.4 µM; in the assay on UACC-62 melanoma, 0.504 µM; with HL-60(TB) leukemia it was 0.0263 µM; with SK-MEL-2 melanoma, 0.24 µM. For the same compound, the GI50 in the assay with M14 melanoma is 0.0515 µM; in the assay with NCI-H460 lung it was 0.195 µM; in the assay on EKVX NSCLC it was 0.53 µM. Besides, the TGI in the assay on SNB-75 CNS is over 100 µM; in the assay with SNB-19 CNS, over 100 µM; in the assay with SK-MEL-28 melanoma, over 100 µM; in the assay on UACC-62 melanoma, over 73.7 µM; in the assay with SK-MEL-2 melanoma, over 100 µM; in the assay with M14 melanoma it was over 100 µM. For the same compound, the TGI with EKVX NSCLC was over 100 µM.

As to `c1ccc2c3c(ccc2c1)-c1c(ccc2c(NCCCCN4CCCCC4)cccc12)C3`, the GI50 in the assay on SNB-19 CNS is 22.2 µM; with SK-MEL-28 melanoma it was 1.88 µM; in the assay with UACC-62 melanoma it was 1.79 µM; with HL-60(TB) leukemia it was 2.48 µM; with SK-MEL-2 melanoma it was 2.92 µM; in the assay on M14 melanoma, 1.94 µM. In addition, the figures for the GI50 in the assay on NCI-H460 lung and in the assay on EKVX NSCLC were 2.08 µM and 10.7 µM, respectively. For the same compound, the TGI in the assay with SNB-19 CNS worked out at 63.5 µM; with SK-MEL-28 melanoma, 4.06 µM; in the assay with UACC-62 melanoma, 3.24 µM; in the assay with HL-60(TB) leukemia, 14.6 µM; in the assay with SK-MEL-2 melanoma, 6.42 µM; in the assay on M14 melanoma it was 3.35 µM. Also, the TGI came to 6.74 µM with NCI-H460 lung and 28 µM in the assay on EKVX NSCLC.

On to `Cn1nc2ccccc2cc1=O`, for which the TGI in the assay on SNB-75 CNS, in the assay on SNB-19 CNS, in the assay on SK-MEL-28 melanoma, in the assay on UACC-62 melanoma, with SK-MEL-2 melanoma and with M14 melanoma was over 100 µM in each case. In addition, the TGI in the assay with NCI-H460 lung and with EKVX NSCLC was over 100 µM throughout.

As for `CC1=CC(=O)c2ccc(C)cc2C1=O`, the TGI with SNB-19 CNS came out at 30 µM; in the assay on SK-MEL-28 melanoma, 22.7 µM; in the assay with UACC-62 melanoma, 21.9 µM; with HL-60(TB) leukemia, 5.4 µM; with SK-MEL-2 melanoma, 44.3 µM; in the assay with M14 melanoma, 30.8 µM. For the same compound, the TGI with NCI-H460 lung came out at 32.4 µM; in the assay on EKVX NSCLC, 23.9 µM.

As for `COc1cc2c3c(n(CCCN4CCCC(O)C4)c(=O)c2cc1OC)-c1cc2c(cc1C3=O)OCO2` (configuration not stated), the GI50 in the assay with SNB-75 CNS was 0.546 µM; in the assay on SNB-19 CNS, 0.6 µM; in the assay on SK-MEL-28 melanoma it was 0.885 µM; with UACC-62 melanoma it was 5.01 µM; with HL-60(TB) leukemia, 0.597 µM; in the assay with SK-MEL-2 melanoma, 2.68 µM. In addition, the values for the GI50 in the assay on M14 melanoma, with NCI-H460 lung and in the assay on EKVX NSCLC were 0.0297 µM, under 0.005 µM and 1.26 µM, respectively. Also, the TGI is 1.57 µM in the assay with SNB-75 CNS; 10.5 µM in the assay with SNB-19 CNS; 2.28 µM with SK-MEL-28 melanoma; 12.8 µM in the assay on UACC-62 melanoma; 1.32 µM with HL-60(TB) leukemia; 28.4 µM in the assay on SK-MEL-2 melanoma. The TGI is 0.972 µM with M14 melanoma, 6.13 µM in the assay on NCI-H460 lung and 2.54 µM in the assay on EKVX NSCLC.

With `COc1ccc2c(c1)C(=O)c1c-2c(NCCN(C)C)nc2ccccc12`, the GI50 in the assay with SNB-19 CNS is 3.28 µM; in the assay on SK-MEL-28 melanoma, 13.9 µM; with UACC-62 melanoma, 15.8 µM; in the assay with SK-MEL-2 melanoma it was 15.7 µM; in the assay with M14 melanoma it was 15.8 µM; in the assay with NCI-H460 lung it was 0.671 µM. Besides, in the assay on EKVX NSCLC, the GI50 is 3.06 µM. The TGI stood at 12.7 µM with SNB-19 CNS; 26.9 µM in the assay with SK-MEL-28 melanoma; 29.4 µM in the assay with UACC-62 melanoma; 31 µM in the assay with SK-MEL-2 melanoma; 29.2 µM with M14 melanoma; 10.6 µM in the assay with NCI-H460 lung. In the assay with EKVX NSCLC, this compound yielded a TGI of 16.4 µM.

For `Cc1ccc(NC(=O)c2cc3ccccc3cc2O)c(C)c1.Cc1ccc(NC(=O)c2cc3ccccc3cc2[O-])c(C)c1.[Ni+2]`, the GI50 with RXF 393 renal was 1.9 µM; with SNB-75 CNS it was 2.78 µM; in the assay with SNB-19 CNS, 3.72 µM; in the assay with SK-MEL-28 melanoma, 6.42 µM; in the assay on UACC-62 melanoma it was 4.91 µM; with SK-MEL-2 melanoma it was 1.53 µM. The GI50 in the assay on M14 melanoma was 4.31 µM; with NCI-H460 lung, 2.77 µM; with EKVX NSCLC, 2.57 µM. Moreover, the TGI in the assay on RXF 393 renal turned out to be 6.37 µM; in the assay with SNB-75 CNS it was 6.7 µM; in the assay on SNB-19 CNS it was 20.2 µM; in the assay on SK-MEL-28 melanoma it was 88.1 µM; in the assay on UACC-62 melanoma it was 21.2 µM; with SK-MEL-2 melanoma, 3.62 µM. Moreover, the TGI turned out to be 13.9 µM in the assay with M14 melanoma, 14.3 µM in the assay with NCI-H460 lung and 8.99 µM with EKVX NSCLC.

As to `CCCCCCCCCCCCCCCCCC[N+](C)(C)Cc1ccc(C[N+](C)(C)CCCCCCCCCCCCCCCCCC)cc1`, the TGI in the assay on RXF 393 renal is 6.67 µM; with SNB-75 CNS it was 26 µM; in the assay on SNB-19 CNS it was 76.1 µM; in the assay with SK-MEL-28 melanoma, 35 µM; with UACC-62 melanoma, 47.6 µM; with SK-MEL-2 melanoma it was over 100 µM. Moreover, the TGI with M14 melanoma is 49 µM; in the assay with NCI-H460 lung it was over 100 µM; with EKVX NSCLC it was 43.1 µM.

On to `C/C=C/C1=CN2C(=O)c3cc(OC4OC(C)C(NC)C(C)(O)C4O)c(C)c(O)c3N=C[C@@H]2C1` (some centres not stated), for which the GI50 in the assay on UACC-62 melanoma is 0.0918 µM and < 0.01 µM; in the assay with HL-60(TB) leukemia it was 0.0603 µM; with M14 melanoma, 0.0589 µM; with NCI-H460 lung, 0.0376 µM and < 0.01 µM. The figures for the TGI in the assay with HL-60(TB) leukemia and in the assay with M14 melanoma were 0.34 µM and 0.213 µM, respectively.

In the case of `c1ccc2c(c1)[nH]c1c2ncc2[nH]c3ccccc3c21`, the TGI in the assay on SNB-75 CNS was 12.1 µM; in the assay with SNB-19 CNS, 10.7 µM; in the assay on SK-MEL-28 melanoma, 27.7 µM; in the assay with UACC-62 melanoma, 3.36 µM; in the assay on SK-MEL-2 melanoma it was 33.7 µM; with M14 melanoma, 7.99 µM. Also, the TGI stood at 5.44 µM in the assay with NCI-H460 lung and 33.1 µM in the assay with EKVX NSCLC.

As to `Nc1ncnc2c1ncn2C1OC(COC2C(CO)OC(OC(C(=O)O)C(O)C(OP(=O)(O)O)C(O)C(=O)O)C(O)C2O)C(O)C1O` (configuration not stated), the TGI with SNB-75 CNS, in the assay with SNB-19 CNS, in the assay on SK-MEL-28 melanoma, in the assay on HL-60(TB) leukemia, with SK-MEL-2 melanoma and with M14 melanoma was over 100 µM each time. For the same compound, the TGI in the assay with NCI-H460 lung and in the assay with EKVX NSCLC was over 100 µM in each case.

With `CC(CN)[C@@H]1CC[C@]2(CO)CC[C@]3(C)[C@H](CC[C@@H]4[C@@]5(C)CCC(N)C(C)(C)[C@@H]5CC[C@]43C)[C@@H]12` (some centres not stated), the GI50 in the assay on RXF 393 renal was 1.55 µM; in the assay with SNB-75 CNS it was 1.41 µM; in the assay with SNB-19 CNS, 1.79 µM; with SK-MEL-28 melanoma, 1.91 µM; in the assay with UACC-62 melanoma, 1.92 µM; in the assay with SK-MEL-2 melanoma, 1.93 µM. Moreover, the GI50 in the assay with M14 melanoma was 1.9 µM; in the assay with NCI-H460 lung, 1.84 µM; with EKVX NSCLC, 1.73 µM. The TGI was 3.07 µM with RXF 393 renal; 2.82 µM in the assay on SNB-75 CNS; 3.29 µM with SNB-19 CNS; 3.62 µM with SK-MEL-28 melanoma; 3.64 µM with UACC-62 melanoma; 3.6 µM in the assay on SK-MEL-2 melanoma. The results for the TGI in the assay with M14 melanoma, in the assay on NCI-H460 lung and in the assay with EKVX NSCLC were 3.76 µM, 3.49 µM and 3.51 µM, respectively.

Turning to `COC(=O)C1=C(C)N(NC(N)=O)C(C)(O)C12CCOC2=O` (configuration not stated), the TGI in the assay with SNB-19 CNS, in the assay on SK-MEL-28 melanoma, in the assay on HL-60(TB) leukemia, in the assay on SK-MEL-2 melanoma, in the assay on M14 melanoma and in the assay on NCI-H460 lung was over 100 µM throughout. In the assay on EKVX NSCLC, this compound came in with a TGI of over 100 µM.

For the compound `Cc1c(-c2nnc(-c3cc(Cl)c(Cl)cc3Cl)o2)nnn1-c1ccnc2c(C(F)(F)F)cccc12`, the GI50 with SNB-75 CNS was 18.7 µM; with SNB-19 CNS, 23.8 µM; with SK-MEL-28 melanoma it was 26.5 µM; in the assay on UACC-62 melanoma it was 26.5 µM; in the assay with HL-60(TB) leukemia it was 40.9 µM; with SK-MEL-2 melanoma it was 19.9 µM. Also, the GI50 in the assay on M14 melanoma was 26.2 µM; in the assay on NCI-H460 lung, 21.7 µM; in the assay with EKVX NSCLC, 23.7 µM. Moreover, the TGI in the assay on SNB-75 CNS is 43.5 µM; in the assay with SNB-19 CNS, 79.9 µM; in the assay with SK-MEL-28 melanoma it was 75.3 µM; in the assay on UACC-62 melanoma, over 100 µM; in the assay on HL-60(TB) leukemia, over 100 µM; in the assay with SK-MEL-2 melanoma, 52 µM. For the same compound, the TGI in the assay on M14 melanoma worked out at 70.5 µM; in the assay on NCI-H460 lung, 42.9 µM; in the assay with EKVX NSCLC it was 73.9 µM.
